US20260347409A1, “CHEMICALLY MODIFIED POLYPEPTIDE” (SUZHOU GLENKOL PHARMA TECHNOLOGY CO., LTD., priority 2023, published 2026)
Where a SMILES comes first, the peptide text is derived from it. Where no end group is shown, it is not given here. [ ]: non-standard residue; d: D form. NMeY = CN[C@@H](Cc1ccc(O)cc1)C(=O)O

What was measured:
PC-12 cells = assay: Cell viability of PC-12 neural cells under glutamate stimulation (excitotoxic cell death model, propidium iodide/Hoechst staining); format: cell-based, rat; conditions: for Normalized cell viability (%): 10 nM compound, 30 min pretreatment, then glutamate stimulation 24 h, normalized to positive control MK-801; for EC50: dose-response relationship in promoting the viability of PC-12 neurons, glutamate stimulation
Protocol: 1.1. Culture of PC-12 Cell Line and Establishment of Excitotoxic Cell Death Model
PC-12 cells (a […] cell line derived from rat adrenal medulla) were cultured in DMEM/F12 complete medium until eaching 80-90% confluence. The cells were then digested, collected, resuspended, and seeded at density of 5×10^4 cells per well in a 24-well plate precoated with coverslips. Following 26 hours of cell culture, excitotoxic cell death was induced by glutamate stimulation. For model establishment: an appropriate amount of glutamate was weighed and dissolved in DMEM/F12 medium to prepare a stock solution. After filtration, the stock solution was diluted with culture medium and administered to the cells via medium replacement. The cells were further incubated for 24 hours after administration.
1.2 Administration of Small Molecules
Prior to glutamate modeling, cells incubated as described in the previous step were pretreated with 10 nM of the polypeptide compound according to the present application for 30 minutes, followed by glutamate stimulation.
1.3. Propidium Iodide Staining
Cells treated with the polypeptide compound according to the present application were stained with propidium iodide to assess cell death. After discarding the culture medium, the cells were washed with PBS, and propidium iodide/Hoechst was added. After incubating for 30 minutes, the cells were removed and the staining solution was discarded. After washing with PBS, the cells were fixed and mounted, and subjected to image acquisition under a fluorescence microscope. The number of propidium iodide-positive cells and Hoechst-positive cells in the acquired images was counted to calculate the cell viability. MK-801 was used as the positive control compound. The normalized cell viability was calculated using the following formula: (cell viability of the compound group −cell viability of the glutamate group)/(cell viability of the positive control group −cell viability of the glutamate group)×100%.
Based on the above dose-response studies of the compound, the inhibitory effects of different small-molecule compounds at the same dose (10 nM) against excitotoxic death in PC-12 neurons cells were further compared.
Based on this, the dose-response relationship of the neuroprotective effect of the polypeptide compounds according to the present application on PC-12 neural cells was analyzed.

[1] = Pharmacokinetic characteristics in rats after intravenous administration (plasma, LC-MS/MS); format: in vivo; conditions: SD rats, intravenous (tail vein), 10 mg/kg; for MRT inf: rat
Protocol: Experimental Example 2: Pharmacokinetic Characteristics of Various Compounds in Rats
Intravenous administration: Three SD rats per group were administered the compounds of Example 1, Example 2, Example 3, Example 6, Example 7, Example 17, and Example 19 via the tail vein, respectively, at a dose of 10 mg/kg. all SD rats were allowed free access to food and water after administration. Plasma was collected 3 min, 10 min, 30 min, 1 h, 2 h, 6 h, 10 h, and 24 h after administration, with 3 rats per time point.
Sample processing: Whole blood was anticoagulated with EDTA-K2. Within 30 minutes of collection, the blood was centrifuged at 3000 g for 10 minutes at 2-8 °C. After centrifugation, the separated plasma was transferred to new 1.5 mL centrifuge tubes and stored at −80 °C.
Analytical method: The concentrations of each compounds in rat plasma were determined by LC-MS/MS using Shimadzu LC30AD and AB Sciex QTRAP 6500+instruments. The relevant pharmacokinetic parameters after administration were calculated.

| Compound | Normalized cell viability (%) (PC-12 cells) | EC50 (PC-12 cells) [nM] | T1/2 [1] [h] | Vss [1] [L/kg] | MRT inf [1] [h] |
| --- | --- | --- | --- | --- | --- |
| CN[C@@H](Cc1ccc(O)cc1)C(=O)NCC(=O)N[C@@H](CCCNC(=N)N)C(=O)N[C@@H](CCCCN)C(=O)N[C@@H](CCCCN)C(=O)N[C@@H](CCCNC(=N)N)C(=O)N[C@@H](CCCNC(=N)N)C(=O)N[C@@H](CCC(N)=O)C(=O)N[C@@H](CCCNC(=N)N)C(=O)N[C@@H](CCCNC(=N)N)C(=O)N[C@@H](CCCNC(=N)N)C(=O)N[C@@H](CCCCN)C(=O)N[C@@H](CCCCN)C(=O)N[C@@H](CC(N)=O)C(=O)N[C@@H](CCCNC(=N)N)C(=O)N[C@@H](CC(N)=O)C(=O)N[C@@H](CCCCN)C(=O)N[C@@H](CC(C)C)C(=O)N[C@@H](CCCNC(=N)N)C(=O)N[C@@H](CCCNC(=N)N)C(=O)N[C@@H](CCC(N)=O)C(=O)N[C@@H](Cc1c[nH]cn1)C(=O)N[C@@H](CO)C(=O)N[C@@H](Cc1ccc(O)cc1)C(=O)O [Example 2] (H-[NMeY]GRKKRRQRRRKKNRNKLRRQHSY-OH) | 65.56 | 12.6 | 1.73 | 3.94 | 1.84 |
| CN[C@@H](Cc1ccc(O)cc1)C(=O)NCC(=O)N[C@@H](CCCNC(=N)N)C(=O)N[C@@H](CCCCN)C(=O)N[C@@H](CCCCN)C(=O)N[C@@H](CCCNC(=N)N)C(=O)N[C@@H](CCCNC(=N)N)C(=O)N[C@@H](CCC(=O)O)C(=O)N[C@@H](CCCNC(=N)N)C(=O)N[C@@H](CCCNC(=N)N)C(=O)N[C@@H](CCCNC(=N)N)C(=O)N[C@@H](CCCCN)C(=O)N[C@@H](CCCCN)C(=O)N[C@@H](CC(=O)O)C(=O)N[C@@H](CCCNC(=N)N)C(=O)N[C@@H](CC(=O)O)C(=O)N[C@@H](CCCCN)C(=O)N[C@@H](CC(C)C)C(=O)N[C@@H](CCCNC(=N)N)C(=O)N[C@@H](CCCNC(=N)N)C(=O)N[C@@H](CCC(=O)O)C(=O)N[C@@H](Cc1c[nH]cn1)C(=O)N[C@@H](CO)C(=O)N[C@@H](Cc1ccc(O)cc1)C(N)=O [Example 19] (H-[NMeY]GRKKRRERRRKKDRDKLRREHSY-NH2) | 87.71 |  | 1.16 | 9.11 | 1.73 |
| Ac-YGRKKRRQRRRKKNRNKLRRQHSY-NH2 [Example 7] |  | 8.72 | 1.51 | 3.58 | 1.93 |
| YGRKKRRQRRRKKNRNKLRRQHSY [Example 1, reference compound] | 41.00 | 23.6 | 0.76 | 1.29 | 0.87 |
| YGRKKRRQRRRKKNRNKLRRQHSY-NH2 [Example 6] |  | 13.5 | 1.23 | 2.53 | 1.65 |
